Legend:
Assay type in all cases: in vivo, human
patients with migraine = test: Study 201 (BHV3000-201) open label long-term safety study, rimegepant 75 mg oral tablet, acute treatment of migraine; conditions: for >= 20.0% decrease in migraines (headache days) per month, subjects n (%) / >= 25.0% decrease in migraines (headache days) per month, subjects n (%) / >= 30.0% decrease in migraines (headache days) per month, subjects n (%) / >= 35.0% decrease in migraines (headache days) per month, subjects n (%) / >= 40.0% decrease in migraines (headache days) per month, subjects n (%) / >= 45.0% decrease in migraines (headache days) per month, subjects n (%) / >= 50.0% decrease in migraines (headache days) per month, subjects n (%): Study 201, Overall, n 1731
Protocol: Clinical Trial-BHV3000-201: Open Label Safety Study in Acute Treatment of Migraine (ClinicalTrials.gov Identifier: NCT 03266588) A phase 2/3 clinical study is conducted with about 2000 participants, as follows. The purpose of this study is to evaluate safety and tolerability of BHV3000 (rimegepant). • Study Type: Interventional (Clinical Trial) • Estimated Enrollment: 2000 participants • Intervention Model: Single Group Assignment • Masking: None (Open Label) • Primary Purpose: Treatment • Official Title: A Multicenter, Open Label Long-Term Safety Study of BHV3000 in the Acute Treatment of Migraine • Actual Study Start Date: Aug. 30, 2017 • Estimated Primary Completion Date: July 2019 • Estimated Study Completion Date: July 2019 [table] 1. To assess the safety and tolerability of rimegepant (BHV-3000) by measuring the frequency and severity of adverse events and discontinuations due to adverse events [Time Frame: 52 weeks] Number of subjects with treatment-emergent adverse events as assessed through laboratory tests, ECGs, physical exam findings (safety and tolerability) 1. ALT or […] with total bilirubin >2×ULN [Time Frame: 52 weeks] elevated liver function tests 2. hepatic related adverse events and hepatic related adverse events that lead to discontinuation [Time Frame: 52 weeks] adverse events related to liver

[1] = Pooled adverse event and LFT safety data, Studies 301, 302 and 303; set-up: ALT or AST >10x ULN / ALT or AST >20x ULN: unit not given here; conditions: pooled Studies 301, 302 and 303, n = 1,771
[2] = test system: subjects with Acute Migraines; test: Study 302 (BHV3000-302) Phase 3 placebo-controlled trial, rimegepant 75 mg tablet, acute treatment of migraine: efficacy and safety
Protocol: Clinical Trial—BHV3000-302: Phase 3: Double-Blind, Randomized, Placebo-Controlled, Safety and Efficacy Trial of BHV-3000 (Rimegepant) for the Acute Treatment of Migraine (ClinicalTrials.gov Identifier: NCT03237845) A phase 3 clinical study was conducted with 1503 participants, as follows. The purpose of this study is to compare the efficacy of BHV-3000 (rimegepant) versus placebo in subjects with Acute Migraines • Study Type: Interventional (Clinical Trial) • Actual Enrollment: 1503 participants • Allocation: Randomized • Intervention Model: Parallel Assignment • Intervention Model Description: Double-blind to Sponsor, Investigator and Subject • Masking: Triple (Participant, Care Provider, Investigator) • Masking Description: Double-blind to Sponsor, Investigator and Subject • Primary Purpose: Treatment • Official Title: BHV3000-302: Phase 3: Double-Blind, Randomized, Placebo-Controlled, Safety and Efficacy Trial of BHV-3000 (Rimegepant) for the Acute Treatment of Migraine • Actual Study Start Date: Jul. 26, 2017 • Primary Completion Date: Jan. 25, 2018 • Study Completion Date: Jan. 31, 2018 [table] • 1. Pain Freedom of rimegepant (75 mg tablet) compared with placebo in the acute treatment of migraine will be measured using the number of evaluable subjects that report no pain at 2 hours post-dose. [Time Frame: Two hours post dose] • Pain will be measured on a 4 point Likert scale (0=none, 1=mild, 2=moderate, 3=severe) • 2. Freedom from the most bothersome symptom (MBS) of rimegepant (75 mg tablet) compared with placebo will be measured using the number of evaluable subjects that report the absence of their MBS at 2 hours post-dose. [Time Frame: Two hours post dose] • The MBS (nausea, phonophobia or photophobia) will measured using a binary scale (0=absent, 1=present). • 1. […] [Time Frame: 2 hours −24 hours post-dose] • Sustained Pain Freedom as measured by a 4 point numeric rating scale (None, Mild, Moderate, Severe) • 2. Rimegepant (75 mg tablet) compared to placebo by tabulating the number of subjects that report the absence of photophobia at 2 hours post-dose in the subset of subjects that reported the presence of photophobia at headache baseline. [Time Frame: 2 hours post-dose] • Freedom from Photophobia • 3. Rimegepant (75 mg tablet) compared to placebo by tabulating the number of subjects that report the absence of phonophobia at 2 hours post-dose in the subset of subjects that reported the presence of phonophobia at headache baseline. [Time Frame: 2 hours post-dose] • Freedom from Phonophobia • 4. To measure rimegepant (75 mg tablet) compared to placebo on Pain Relief, at 2 hours post-dose, that report a pain level of moderate or severe at baseline and then report a pain level of none or mild. [Time Frame: 2 hours post-dose] • Pain Relief as measured by a 4 point numeric rating scale (None, Mild, Moderate, Severe) • 5. Freedom from Nausea will by tabulating the number of subjects that report the absence of nausea at 2 hours post-dose in the subset of subjects that reported the presence of nausea at headache baseline. [Time Frame: 2 hours post-dose] • Freedom from Nausea • 6. To measure rimegepant (75 mg tablet) compared to placebo on the probability of requiring rescue medication will be assessed using the number of subjects that take rescue medication within […] administration of study medication (BHV3000 or placebo). [Time Frame: up to 24 hours post-dose] • Requiring Rescue Medication • 7. […] [Time Frame: 2 hours-48 hours post-dose] • Sustained Pain Freedom as measured by a 4 point numeric rating scale (None, Mild, Moderate, Severe) • 8. […] [Time Frame: 2 hours-24 hours post-dose] • Sustained Pain Relief as measured by a 4 point numeric rating scale (None, Mild, Moderate, Severe) • 9. […] [Time Frame: 2 hours-48 hours post-dose] • Sustained Pain Relief as measured by a 4 point numeric rating scale (None, Mild, Moderate, Severe) • 10. […]

SMILES: N[C@@H]1c2cccnc2[C@H](OC(=O)N2CCC(n3c(=O)[nH]c4ncccc43)CC2)CC[C@H]1c1cccc(F)c1F [Rimegepant, [(5S,6S,9R)-5-amino-6-(2,3-difluorophenyl)-6,7,8,9-tetrahydro-5H-cyclohepta[b]pyridin-9-yl] 4-(2-oxo-3H-imidazo[4,5-b]pyridin-1-yl)piperidine-1-carboxylate]
- >= 20.0% decrease in migraines (headache days) per month, subjects n (%) (patients with migraine): 683 (39.5%) n (%)
- >= 25.0% decrease in migraines (headache days) per month, subjects n (%) (patients with migraine): 602 (34.8%) n (%)
- >= 30.0% decrease in migraines (headache days) per month, subjects n (%) (patients with migraine): 523 (30.2%) n (%)
- >= 35.0% decrease in migraines (headache days) per month, subjects n (%) (patients with migraine): 442 (25.5%) n (%)
- >= 40.0% decrease in migraines (headache days) per month, subjects n (%) (patients with migraine): 362 (20.9%) n (%)
- >= 45.0% decrease in migraines (headache days) per month, subjects n (%) (patients with migraine): 287 (16.6%) n (%)
- >= 50.0% decrease in migraines (headache days) per month, subjects n (%) (patients with migraine): 226 (13.1%) n (%)
- >= 20.0% decrease in migraines (headache days) per month, subjects n (%) (patients with migraine; listed as BHV-3000): 683 (39.5) n (%)
- >= 25.0% decrease in migraines (headache days) per month, subjects n (%) (patients with migraine; listed as BHV-3000): 602 (34.8) n (%)
- >= 30.0% decrease in migraines (headache days) per month, subjects n (%) (patients with migraine; listed as BHV-3000): 523 (30.2) n (%)
- >= 35.0% decrease in migraines (headache days) per month, subjects n (%) (patients with migraine; listed as BHV-3000): 442 (25.5) n (%)
- >= 40.0% decrease in migraines (headache days) per month, subjects n (%) (patients with migraine; listed as BHV-3000): 362 (20.9) n (%)
- >= 45.0% decrease in migraines (headache days) per month, subjects n (%) (patients with migraine; listed as BHV-3000): 287 (16.6) n (%)
- >= 50.0% decrease in migraines (headache days) per month, subjects n (%) (patients with migraine; listed as BHV-3000): 226 (13.1) n (%)
- Incidence of serum ALT or AST >3xULN (patients with migraine; Study 201 interim analysis, 75 mg up to once daily, long-term): 1.0%
- Liver safety signal (patients with migraine; Study 201 interim analysis, including near-daily dosing subset): no liver safety signal detected
- Liver cases assessed as probably related to study drug (patients with migraine; Study 201 interim analysis, independent liver panel): no liver cases
- ALT or AST >3x ULN, n (%) [1]: 2 (0.1%) n (%)
- ALT or AST >10x ULN [1]: 0
- ALT or AST >20x ULN [1]: 0
- ALT or AST >ULN, n (%) [1]: 48 (2.7%) n (%)
- ALT or AST >5x ULN, n (%) ([1]; AST elevation, not drug-related per investigator): 1 (0.06%) ^2 n (%)
- SAEs related to the study drug [2]: No SAEs were determined to be related to the study drug
- Transaminase level greater than 3 times ULN, subjects [2]: No subject
- Adverse event urinary tract infection, incidence ([2]; 8/543): 1.5%
- Adverse event nausea, incidence ([2]; 10/543): 1.8%
- Serum ALT or AST levels greater than ULN, subjects ([2]; 13/543): 2.4%
- Proportion of patients achieving normal function at 2 hours (functional disability) versus placebo ([2]; P<0.0001): greater proportion
- Serious AEs (SAEs), number of subjects ([2]; back pain): 1 subject

From US20220168295A1, “RIMEGEPANT FOR CGRP RELATED DISORDERS” (Biohaven Pharmaceutical Ireland DAC, priority 2018, published 2022)
